# Laboratory results reported in patent US20100160442A1, “FORMULATIONS FOR CANCER TREATMENT” (priority 2006, published 2010).
# Like-named read-outs stand apart in the source and are kept apart here.
# Experiment: Equilibrium solubility of 4-iodo-3-nitrobenzamide, overnight at 25° C., measured by HPLC
# Assay type: physicochemical
# Conditions: for solubility: thermodynamic from solid, read-out: Solubility
# Method: Excess 4-iodo-3-nitrobenzamide (“BA”) was equilibrated overnight (>16 hr) at 25° C. in purified water, 0.01M HCl (pH2), 0.01M NaOH ([…]), and 0.9% NaCl. Following dilution, the solubility of the drug was measured by HPLC.
# Excess 4-iodo-3-nitrobenzamide was equilibrated overnight (>16 hr) at 25° C. in solutions of purified water containing various concentrations of cyclodextrins including hydroxypropyl-β-cyclodextrin (Kleptose® from Roquette) (HPBCD), sulfobutyl ether-β-cyclodextrin (Captisol® from Cyclex) (SBEBCD), and Hyroxypropyl-γ-cyclodextrin (Cavamax W8® from Wacker) (HPGCD). Following dilution, the solubility of the drug was measured by HPLC.
# Excess 4-iodo-3-nitrobenzamide was equilibrated overnight (>16 hr) at 25° C. in purified water containing various concentrations of the surfactants: polyethylene sorbitan monooleate (Polysorbate 80), polyoxyethylene sorbitan monolaurate (Polysorbate 20), Cremophor EL (BASF), Cremophor RH40 (BASF), Poloxamer 118, and Solutol HS-15 (BASF). Following dilution, the solubility of the drug was measured by HPLC.
# Excess 4-iodo-3-nitrobenzamide was equilibrated overnight (>16 hr) at 25° C. in solutions of purified water containing various co-solvents including ethanol, glycofurol, glycerin formal, benzyl alcohol, N,N, dimethylacetamide (DMA), polyethylene glycol (PEG) 400, and propylene glycol. Following dilution, the solubility of the drug was measured by HPLC.
# Excess 4-iodo-3-nitrobenzamide was equilibrated overnight (>16 hr) at 25° C. in solutions in purified water containing mixtures of solubilizers. Following dilution, the solubility of the drug was measured by HPLC.
smiles,measurement,setting,value
"NC(=O)c1ccc(I)c([N+](=O)[O-])c1 [BA, 4-iodo-3-nitrobenzamide]",solubility,"0.01 M HCl, 25 °C, pH 2, simulated gastric fluid, 0.01 M HCl (pH 2), 25° C.",179 µg/mL
same,solubility,"0.01 M NaOH, 25 °C, pH 13, aqueous buffer, 0.01M NaOH (pH 13), 25° C.",181 µg/mL
same,solubility,"0.9% NaCl, 25 °C, saline or isotonic, 0.9% NaCl, 25° C.",164 µg/mL
same,solubility,"5% DMA (N,N-dimethylacetamide) in purified water, 25 °C, aqueous with cosolvent or surfactant or cyclodextrin, DMA 5%, 25° C.",1390 µg/mL
same,Enhancement,5% DMA/5% EtOH/40% PEG 400,44.0
same,solubility,"5% DMA/5% EtOH/40% PEG 400 in purified water, 25 °C, aqueous with cosolvent or surfactant or cyclodextrin, 5% DMA/5% EtOH/40% PEG 400, 25° C.",8010 µg/mL
same,Enhancement,5% DMA/25% Solutol HS-15,45.7
same,solubility,"5% DMA/25% Solutol HS-15 in purified water, 25 °C, aqueous with cosolvent or surfactant or cyclodextrin, 5% DMA/25% Solutol HS-15, 25° C.",8320 µg/mL
same,Enhancement,5% DMA/40% PEG 400,33.2
same,solubility,"5% DMA/40% PEG 400 in purified water, 25 °C, aqueous with cosolvent or surfactant or cyclodextrin, 5% DMA/40% PEG 400, 25° C.",6050 µg/mL
same,Enhancement,5% Polysorbate 20/5% ETOH,12.1
same,solubility,"5% Polysorbate 20/5% ethanol in purified water, 25 °C, aqueous with cosolvent or surfactant or cyclodextrin, 5% Polysorbate 20/5% ETOH, 25° C.",2210 µg/mL
same,Enhancement,5% Polysorbate 20/5% glycofurol,11.0
same,solubility,"5% Polysorbate 20/5% glycofurol in purified water, 25 °C, aqueous with cosolvent or surfactant or cyclodextrin, 5% Polysorbate 20/5% glycofurol, 25° C.",2000 µg/mL
same,Enhancement,5% Polysorbate 80/5% ETOH,12.3
same,solubility,"5% Polysorbate 80/5% ethanol in purified water, 25 °C, aqueous with cosolvent or surfactant or cyclodextrin, 5% Polysorbate 80/5% ETOH, 25° C.",2230 µg/mL
same,Enhancement,5% Polysorbate 80/5% glycofurol,13.1
same,solubility,"5% Polysorbate 80/5% glycofurol in purified water, 25 °C, aqueous with cosolvent or surfactant or cyclodextrin, 5% Polysorbate 80/5% glycofurol, 25° C.",2390 µg/mL
same,Enhancement,5% Polysorbate 80/10% EtOH/40% PEG 400,6.7
same,solubility,"5% glucose (5GW), 25 °C, saline or isotonic, 5% Glucose (5GW), 25° C.",173 µg/mL
same,solubility,"10% Cremophor EL in purified water, 25 °C, aqueous with cosolvent or surfactant or cyclodextrin, Cremophor EL 10%, 25° C.",3500 µg/mL
same,solubility,"10% Cremophor RH40 in purified water, 25 °C, aqueous with cosolvent or surfactant or cyclodextrin, Cremophor RH40 10%, 25° C.",3370 µg/mL
same,Enhancement,10% EtOH/10% Polysorbate 80,11.5
same,Enhancement,10% EtOH/40% PEG 400,18.8
same,Enhancement,"10% EtOH/40% PEG 400,/5% Benzyl Alcohol",17.1
same,solubility,"10% HPBCD in purified water, 25 °C, aqueous with cosolvent or surfactant or cyclodextrin, HPBCD 10% in purified water, 25° C.",4860 µg/mL
same,solubility,"10% Poloxamer 118 in purified water, 25 °C, aqueous with cosolvent or surfactant or cyclodextrin, Poloxamer 118 10%, 25° C.",430 µg/mL
same,solubility,"10% Polysorbate 20 in purified water, 25 °C, aqueous with cosolvent or surfactant or cyclodextrin, Polysorbate 20 10%, 25° C.",3660 µg/mL
same,solubility,"10% Polysorbate 80 in purified water, 25 °C, aqueous with cosolvent or surfactant or cyclodextrin, Polysorbate 80 10%, 25° C.",3120 µg/mL
same,Enhancement,"10% glycofurol, 40% PEG 400",33.6
same,solubility,"20% HPBCD in purified water, 25 °C, aqueous with cosolvent or surfactant or cyclodextrin, HPBCD 20% in purified water, 25° C.",9960 µg/mL
same,solubility,"25% HPBCD in purified water, 25 °C, aqueous with cosolvent or surfactant or cyclodextrin, HPBCD 25% in purified water, 25° C.",11500 µg/mL
same,solubility,"25% HPGCD in purified water, 25 °C, aqueous with cosolvent or surfactant or cyclodextrin, HPGCD 25% in purified water, 25° C.",272 µg/mL
same,solubility,"25% SBEBCD in purified water, 25 °C, aqueous with cosolvent or surfactant or cyclodextrin, SBEBCD 25% in purified water, 25° C.",11000 µg/mL
same,solubility,"25% Solutol HS 15 in purified water, 25 °C, aqueous with cosolvent or surfactant or cyclodextrin, Solutol HS 15 25%, 25° C.",6550 µg/mL
same,solubility,"30% Solutol HS 15 in purified water, 25 °C, aqueous with cosolvent or surfactant or cyclodextrin, Solutol HS 15 30%, 25° C.",7460 µg/mL
same,solubility,"40% HPBCD in purified water, 25 °C, aqueous with cosolvent or surfactant or cyclodextrin, HPBCD 40% in purified water, 25° C.",12800 µg/mL
same,solubility,"50% PEG 400 in purified water, 25 °C, aqueous with cosolvent or surfactant or cyclodextrin, PEG 400 50%, 25° C.",7660 µg/mL
same,Enhancement,50% Polysorbate 20/50% EtOH,89.6
same,solubility,"50% Polysorbate 20/50% EtOH, 25 °C, organic solvent or mixture, 50% Polysorbate 20/50% EtOH, 25° C.",16300 µg/mL
same,Enhancement,50% Polysorbate 80/50% EtOH,102.2
same,solubility,"50% Polysorbate 80/50% EtOH, 25 °C, organic solvent or mixture, 50% Polysorbate 80/50% EtOH, 25° C.",18600 µg/mL
same,solubility,"50% ethanol in purified water, 25 °C, aqueous with cosolvent or surfactant or cyclodextrin, Ethanol 50%, 25° C.",5720 µg/mL
same,solubility,"50% glycerin formal in purified water, 25 °C, aqueous with cosolvent or surfactant or cyclodextrin, Glycerin Formal 50%, 25° C.",3450 µg/mL
same,solubility,"50% glycofurol in purified water, 25 °C, aqueous with cosolvent or surfactant or cyclodextrin, Glycofurol 50%, 25° C.",9850 µg/mL
same,solubility,"50% propylene glycol in purified water, 25 °C, aqueous with cosolvent or surfactant or cyclodextrin, Propylene glycol 50%, 25° C.",2240 µg/mL
same,solubility,"100% DMA (N,N-dimethylacetamide), 25 °C, organic solvent or mixture, DMA 100%, 25° C.",71500 µg/mL
same,solubility,"100% Polysorbate 20, 25 °C, organic solvent or mixture, Polysorbate 20 100%, 25° C.",10800 µg/mL
same,solubility,"100% Polysorbate 80, 25 °C, organic solvent or mixture, Polysorbate 80 100%, 25° C.",16900 µg/mL
same,solubility,"100% benzyl alcohol, 25 °C, organic solvent or mixture, Benzyl alcohol 100%, 25° C.",15500 µg/mL
